Literature values as cited in patent publication US4944949A, “Pharmaceutical delivery systems” (priority 1986, dated 1990).
Like-named read-outs stand apart in the source and are kept apart here.

Assays:
[1] = for faecal blood loss with oral prostaglandin E2: oral PGE2 1 mg three or four times daily given with the drug
[2] = in vivo
[3] = for most frequent adverse effects: in vivo
[4] = parts of drug dissolving in 10,000 parts of water

SMILES	solubility in organic solvents	absorption [2]	most frequent adverse effects [3]	other results
CC(=O)Oc1ccccc1C(=O)O [Aspirin]				faecal blood loss with oral prostaglandin E2 [1]: reduced to control levels
O=C(O)Cc1ccccc1Nc1c(Cl)cccc1Cl [Diclofenac]	soluble in some organic solvents	fairly well absorbed		solubility in water (water): poorly soluble in water; Gastrointestinal disturbances / side effects reported ([3]; % of cases): about 7%
O=C(O)c1ccccc1Nc1cccc(C(F)(F)F)c1 [Flufenamic acid]	reasonably soluble in various organic solvents	well absorbed	gastrointestinal disturbances	solubility in water [4]: less than 1 part in 10,000 parts of water; bound to plasma proteins (plasma proteins): extensively bound to plasma proteins
CC(C(=O)O)c1ccc(-c2ccccc2)c(F)c1 (centres unmarked) [Flurbiprofen]	readily soluble in most organic solvents	readily absorbed		bound to plasma proteins (plasma proteins; plasma): approximately 99%
CC(C)Cc1ccc(C(C)C(=O)O)cc1 (centres unmarked) [Ibuprofen, ibuprofen]	fairly soluble in simple organic solvents	well absorbed	gastrointestinal	solubility in water [4]: less than 1 part in 10,000 parts of water; solubility in water (water): poorly soluble in water
COc1ccc2c(c1)c(CC(=O)O)c(C)n2C(=O)c1ccc(Cl)cc1 [Indomethacin]	more soluble in simple organic solvents	readily absorbed	gastrointestinal problems, headache and dizziness	parts of water in which drug is soluble (parts of water per part of drug): more than 10,000 parts of water; increase in faecal blood loss ([1]; compared with controls): ~3 fold; faecal blood loss with oral prostaglandin E2 [1]: reduced to control levels
CC(C(=O)O)c1cccc(C(=O)c2ccccc2)c1 (centres unmarked) [Ketoprofen]			gastrointestinal	
COc1ccc2cc([C@H](C)C(=O)O)ccc2c1 [Naproxen]			gastrointestinal	
CCCCC1C(=O)N(c2ccccc2)N(c2ccccc2)C1=O [Phenylbutazone]		readily absorbed	nausea, vomiting and epigastric distress	
CN1C(C(=O)Nc2ccccn2)=C(O)c2ccccc2S1(=O)=O [Piroxicam]	soluble in some organic solvents	well absorbed	high incidence of severe gastrointestinal side effects	solubility in water (water): poorly soluble in water; bound to plasma proteins (plasma proteins; plasma): 99%
CC1=C(CC(=O)O)c2cc(F)ccc2/C1=C\c1ccc([S+](C)[O-])cc1 (centres unmarked) [Sulindac]		incompletely absorbed from the gastrointestinal tract	gastrointestinal, headache and dizziness	
